Drawing on patent publication US20040062800A1, “Sustained release pharmaceutical dosage forms with minimized ph dependent dissolution profiles” (priority 2000, published 2004), this text covers solubility for one compound.

This data set is described as follows: physchem. To be noted: 25 °C. In kind it is physicochemical. The text has this: Below pH 3, the solubility increased as the pH decreased which is consistent with formation of a more soluble protonated form. […] Above pH 4, the solubility was independent of pH and remained constant (ca. 1.2 mcg/mL) up to pH 8. Above pH 8, the solubility increased with increasing pH which is due to the ionization of the quinazoline moiety.

Structures can show the parent of a compound that is named as a salt.

Take `O=C1CN2Cc3c(ccc(Cl)c3Cl)N=C2N1` [anagrelide HCl]: the solubility was about 0.0012 mg/mL (aqueous buffer); 0.236 mg/mL (pH 0.96, simulated gastric fluid); 0.992 mg/mL (pH 11.4, aqueous buffer).

Broadly, the solubility is the dissolved amount per volume that the medium holds.
